Results reported in PubChem BioAssay (NCI).
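Exposure lasted 48 hours, with cells grown in 96-well plates and compounds tested at five concentrations. GI50 is the concentration that inhibits growth by half. TGI marks complete inhibition of growth.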

Columns and labels:
Experiment in all cases: DTP human tumour cell line panel, 48 h
[1] = system: COLO 205 colon
[2] = system: DU-145 prostate
[3] = system: EKVX NSCLC
[4] = system: MDA-MB-231 breast
[5] = system: NCI-H226 lung
[6] = system: OVCAR-3 ovarian
[7] = system: SN12C renal
[8] = system: SNB-75 CNS
[9] = system: SW-620 colon
[10] = system: A498 renal

Q: For `COc1ccc(CC(C#N)c2cc(OC)c(OC)c(OC)c2)cc1` (centres undefined), which TGI [1] is on record?
A: 0.133 µM

Q: And the TGI [2]?
A: 1.82 µM

Q: What about the TGI [3] of the same compound?
A: > 100 µM

Q: What about the TGI [4] of the same compound?
A: 3.29 µM

Q: And the TGI [5]?
A: 14.3 µM

Q: And the TGI [6]?
A: 0.113 µM

Q: What about the TGI [7] of the same compound?
A: > 79.9 µM

Q: What about the TGI [8] of the same compound?
A: > 100 µM

Q: And the TGI [9]?
A: > 100 µM

Q: What does the source list for `CC(=O)OC1C/C(C)=C/[C@H](O)CC(C)/C=C/[C@@]2(C)CCC(C(C)(C)O)C12` (some centres undefined)?
A: TGI [10]: > 100 µM; TGI [1]: > 100 µM; TGI [3]: > 100 µM; TGI [5]: > 100 µM; TGI [6]: > 100 µM; TGI [7]: > 100 µM; TGI [8]: > 100 µM; TGI [9]: > 100 µM

Q: What does the source list for `COC(=O)C1CCC(N2C(=O)CCC2C(=O)OC)=N1` (centres undefined)?
A: TGI [10]: > 100 µM; TGI [1]: > 100 µM; TGI [3]: > 100 µM; TGI [5]: > 100 µM; TGI [6]: > 100 µM; TGI [7]: > 100 µM; TGI [8]: > 100 µM; TGI [9]: > 100 µM

Q: How did the TGI [10] turn out when `CC(C)[C@H](O)C(=O)N[C@H]1Cc2ccc3c(c2)[C@]24C5=C(N=C(O5)[C@H](C(C)C)NC1=O)c1nc(Cl)c(o1)-c1c(Cl)[nH]c5cccc(c15)-c1cccc2c1N[C@H]4O3` was run?
A: > 10 µM

Q: What about the GI50 [2] of the same compound?
A: < 0.001 µM

Q: What about the TGI [2] of the same compound?
A: 0.748 µM

Q: What about the TGI [3] of the same compound?
A: > 10 µM

Q: What about the GI50 [4] of the same compound?
A: 0.00178 µM

Q: And the TGI [5]?
A: 0.0273 µM

Q: What about the GI50 [6] of the same compound?
A: < 0.001 µM

Q: What about the TGI [6] of the same compound?
A: 0.00747 µM

Q: And the GI50 [9]?
A: 0.0017 µM

Q: And the TGI [9]?
A: > 10 µM

Q: Which TGI [10] does the source give for `Cc1cccc(NC(=O)Cc2nc3ccccc3s2)c1C` here?
A: > 100 µM

Q: And the TGI [1]?
A: > 100 µM

Q: And the TGI [3]?
A: > 100 µM

Q: And the TGI [5]?
A: > 100 µM

Q: And the TGI [6]?
A: > 100 µM

Q: What about the TGI [7] of the same compound?
A: > 100 µM

Q: And the TGI [8]?
A: > 100 µM

Q: What about the TGI [9] of the same compound?
A: > 100 µM

Q: Which results are given for `C=CC1=C(C)C(Cc2[nH]c(/C=c3\[nH]/c(=C/C4=NC(=O)C(C)/C4=C\C)c(C)c3CCC(=O)O)c(CCC(=O)OC)c2C)NC1=O` (centres undefined)?
A: GI50 [10]: > 100 µM; TGI [10]: > 100 µM; GI50 [1]: 20.2 µM; TGI [1]: 36.3 µM; GI50 [2]: 62.6 µM; TGI [2]: > 100 µM; GI50 [3]: 47.7 µM; TGI [3]: > 100 µM; GI50 [4]: 25.4 µM; TGI [4]: 58.9 µM; GI50 [6]: 20.1 µM; TGI [6]: 39.4 µM; GI50 [7]: 22.2 µM; TGI [7]: 44.6 µM; GI50 [9]: 25.4 µM; TGI [9]: 61.4 µM

Q: For `CCC(C)c1cnc(CC(C)C)c(=O)[nH]1` (centres undefined), which TGI [10] is on record?
A: > 100 µM

Q: What about the TGI [1] of the same compound?
A: > 100 µM

Q: And the TGI [2]?
A: > 100 µM

Q: What about the TGI [3] of the same compound?
A: > 100 µM

Q: And the TGI [4]?
A: > 100 µM

Q: And the TGI [6]?
A: > 100 µM

Q: What about the TGI [7] of the same compound?
A: > 100 µM

Q: What about the TGI [8] of the same compound?
A: > 100 µM

Q: What about the TGI [9] of the same compound?
A: > 100 µM

Q: How did the GI50 [10] turn out when `O=C1C(Nc2cccc(O)c2)=C(Sc2ccc(Cl)cc2)C(=O)N1Cc1ccccc1` was run?
A: 10.3 µM

Q: And the TGI [10]?
A: 25.6 µM

Q: And the GI50 [1]?
A: 28.2 µM

Q: And the TGI [1]?
A: > 100 µM

Q: What about the GI50 [2] of the same compound?
A: 12 µM

Q: And the TGI [2]?
A: 33.3 µM

Q: And the GI50 [5]?
A: 32.6 µM

Q: What about the TGI [5] of the same compound?
A: > 100 µM

Q: And the GI50 [6]?
A: 10.6 µM

Q: What about the TGI [6] of the same compound?
A: 28.2 µM

Q: What about the GI50 [7] of the same compound?
A: 15.8 µM

Q: What about the TGI [7] of the same compound?
A: 55.1 µM

Q: For `C[C@@]1(CBr)C[C@@](C)(/C=C/Cl)[C@@H](Cl)C[C@H]1Cl`, which TGI [10] is on record?
A: 30.8 µM

Q: What about the TGI [1] of the same compound?
A: 28.1 µM

Q: And the TGI [3]?
A: 33 µM

Q: What about the TGI [5] of the same compound?
A: 26.1 µM

Q: What about the TGI [6] of the same compound?
A: 22.8 µM

Q: What about the TGI [7] of the same compound?
A: 24.4 µM

Q: And the TGI [8]?
A: 30.5 µM

Q: And the TGI [9]?
A: 27.8 µM

Q: How did the GI50 [10] turn out when `Cc1sc2c(c1C)C(c1ccc(Cl)cc1)=N[C@@H](CC(=O)Nc1ccc(O)cc1)c1nnc(C)n1-2` was run?
A: 0.204 µM

Q: And the TGI [10]?
A: 2.48 µM

Q: And the GI50 [1]?
A: 0.146 µM

Q: And the TGI [1]?
A: 14.3 µM

Q: What about the GI50 [2] of the same compound?
A: 14.7 µM

Q: What about the TGI [2] of the same compound?
A: 42.8 µM

Q: And the GI50 [4]?
A: 0.18 µM

Q: What about the TGI [4] of the same compound?
A: 21.7 µM

Q: What about the GI50 [5] of the same compound?
A: 4.48 µM

Q: What about the TGI [5] of the same compound?
A: 26 µM

Q: And the GI50 [6]?
A: 0.888 µM

Q: What about the TGI [6] of the same compound?
A: 18.7 µM

Q: And the GI50 [7]?
A: 9.41 µM

Q: And the TGI [7]?
A: 30.7 µM

Q: What about the GI50 [8] of the same compound?
A: 0.0297 µM

Q: What about the TGI [8] of the same compound?
A: 8.58 µM

Q: What about the GI50 [9] of the same compound?
A: 10.6 µM

Q: And the TGI [9]?
A: 32 µM

Q: For `CN(C(=O)C1CC1)C1C2CN3CCC(O2)C13` (centres undefined), which TGI [10] is on record?
A: > 100 µM

Q: And the TGI [1]?
A: > 100 µM

Q: And the TGI [3]?
A: > 100 µM

Q: What about the TGI [5] of the same compound?
A: > 100 µM

Q: What about the TGI [6] of the same compound?
A: > 100 µM

Q: And the TGI [7]?
A: > 100 µM

Q: What about the TGI [8] of the same compound?
A: > 100 µM

Q: And the TGI [9]?
A: > 100 µM

Q: Which results are given for `CC(=O)Oc1cc(OC(C)=O)c2cc3c(cc2c1OC(C)=O)C(=O)C1(CCCC1)C3=O`?
A: TGI [1]: 33.9 µM; TGI [3]: 38 µM; TGI [6]: 34.5 µM; TGI [7]: 31.6 µM; TGI [8]: 30 µM; TGI [9]: 39.4 µM

Q: Which results are given for `CN(C)C(=S)/N=c1\ssc(=S)n1Cc1ccccn1`?
A: TGI [10]: > 81.4 µM; TGI [1]: 21.4 µM; TGI [3]: > 100 µM; TGI [5]: > 100 µM; TGI [6]: 11.3 µM; TGI [7]: > 100 µM; TGI [8]: > 56.6 µM; TGI [9]: > 100 µM

Q: `CN(C)CCC(=O)NCc1c2nc3ccccc3nc2n2ccccc12` was tested. Which GI50 [10] did it give?
A: 22 µM

Q: What about the TGI [10] of the same compound?
A: 88.1 µM

Q: And the GI50 [1]?
A: 73.3 µM

Q: And the TGI [1]?
A: > 100 µM

Q: What about the GI50 [2] of the same compound?
A: 12.3 µM

Q: What about the TGI [2] of the same compound?
A: > 100 µM

Q: And the GI50 [3]?
A: 43.1 µM

Q: And the TGI [3]?
A: > 100 µM

Q: And the GI50 [4]?
A: 24.7 µM

Q: And the TGI [4]?
A: > 100 µM

Q: And the GI50 [6]?
A: > 100 µM

Q: What about the TGI [6] of the same compound?
A: > 100 µM

Q: And the GI50 [7]?
A: 68 µM

Q: And the TGI [7]?
A: > 100 µM

Q: And the GI50 [9]?
A: 58.7 µM

Q: And the TGI [9]?
A: > 100 µM

Q: Which results are given for `CC(=O)[CH-]C(=O)c1ccccc1.CC(=O)[CH-]C(=O)c1ccccc1.CC12CC3(C)CC(C)(C1)CC([O-])(C2)C3.CC[O-].[Ti+4]`?
A: GI50 [10]: 21.3 µM; TGI [10]: 44.5 µM; GI50 [1]: 19.4 µM; TGI [1]: 40.2 µM; GI50 [6]: 25.6 µM; TGI [6]: > 100 µM; GI50 [7]: 43.5 µM; TGI [7]: > 100 µM; GI50 [8]: 14.3 µM; TGI [8]: 29.4 µM; GI50 [9]: 32.4 µM; TGI [9]: > 100 µM

Q: For `C=C(CN(CCN1CCOCC1)CC(=C)c1ccc(C(=O)Nc2ccccc2N)cc1)c1ccc(C(=O)Nc2ccccc2N)cc1`, which GI50 [1] is on record?
A: 8.21 µM

Q: What about the TGI [1] of the same compound?
A: 20.2 µM

Q: And the GI50 [2]?
A: 6.88 µM

Q: And the TGI [2]?
A: 15.7 µM

Q: And the GI50 [3]?
A: 14 µM

Q: What about the TGI [3] of the same compound?
A: > 50 µM

Q: What about the GI50 [4] of the same compound?
A: 3.05 µM

Q: And the TGI [4]?
A: 11.2 µM

Q: And the GI50 [6]?
A: 10.1 µM

Q: What about the TGI [6] of the same compound?
A: 39.8 µM

Q: And the GI50 [7]?
A: 7.43 µM

Q: What about the TGI [7] of the same compound?
A: 21.2 µM

Q: And the GI50 [9]?
A: 8.71 µM

Q: And the TGI [9]?
A: 38.5 µM

Q: Which TGI [10] does the source give for `COC(=O)NN=C1C(C)(C)C(=NNC(=O)OC)C1(C)C` here?
A: > 100 µM

Q: And the TGI [1]?
A: > 56 µM

Q: What about the TGI [3] of the same compound?
A: > 100 µM

Q: What about the TGI [5] of the same compound?
A: > 100 µM

Q: What about the TGI [6] of the same compound?
A: > 100 µM

Q: What about the TGI [7] of the same compound?
A: > 100 µM

Q: What about the TGI [8] of the same compound?
A: > 100 µM

Q: What about the TGI [9] of the same compound?
A: > 100 µM

Q: `CC(C)(C)[Si](Nc1ccccc1)(c1ccccc1)c1ccccc1` was tested. Which TGI [10] did it give?
A: 31.3 µM

Q: And the TGI [1]?
A: 29.4 µM

Q: And the TGI [3]?
A: 30.3 µM

Q: And the TGI [5]?
A: 29.8 µM

Q: And the TGI [6]?
A: 27.4 µM

Q: And the TGI [7]?
A: 28.3 µM

Q: What about the TGI [8] of the same compound?
A: 24.5 µM

Q: And the TGI [9]?
A: 33.6 µM

Q: What does the source list for `O/N=C1/C(=C/c2ccc(Cl)cc2)CCCC1C(NO)c1ccc(Cl)cc1` (centres undefined)?
A: TGI [10]: 38.9 µM; TGI [1]: 42.3 µM; TGI [3]: 74.8 µM; TGI [6]: 31 µM; TGI [7]: 39.7 µM; TGI [8]: 39.5 µM; TGI [9]: > 100 µM

Q: How did the TGI [1] turn out when `O=C(Cc1nc2ccccc2s1)C(=O)Nc1ccc(Cl)cc1Cl` was run?
A: > 100 µM

Q: And the TGI [5]?
A: > 100 µM

Q: And the TGI [6]?
A: > 100 µM

Q: What about the TGI [7] of the same compound?
A: > 100 µM

Q: And the TGI [8]?
A: > 100 µM

Q: What about the TGI [9] of the same compound?
A: > 100 µM
